# Publication PMC10574143, “Exploring the Solubility Limits of Edaravone in Neat Solvents and Binary Mixtures: Experimental and Machine Learning Study” (Molecules, 2023)
# Assay: shake-flask solubility measurement, spectrophotometric at 243 nm
# Format: physicochemical
# Description: To assess the solubility of EDA in various solvents, excess amounts of EDA were added to test tubes containing either a specific solvent or a binary mixture containing the organic solvent and water in different molar proportions. The saturated solutions were then placed in an Orbital Shaker Incubator ES-20/60 from Biosan (Riga, Latvia) and incubated at various temperatures for 24 h. Four temperature points, ranging from 25 °C to 40 °C with 5 °C intervals, were used for the incubation. The incubator temperature was precisely adjusted to within 0.1 degrees, with a variance of 0.5 degrees during the 24 h cycle. The samples were simultaneously mixed at 60 rev/min. Next, the samples were filtered using syringes equipped with PTFE filters with a pore size of 0.22 µm. To prevent precipitation due to temperature differences between the solutions and instruments, all test tubes, pipette tips, syringes, and filters were preheated. They were placed in the same incubator as the samples and heated to the same temperature before handling. This step was particularly crucial when dealing with elevated temperatures, as the temperature difference could be substantial. After filtration, small quantities of the obtained filtrate were diluted in test tubes containing methanol and measured spectrophotometrically. The density of each solution was measured by weighing a 1 mL volume in 10 mL volumetric flasks using an Eppendorf Reference 2 pipette (Hamburg, Germany) with a systematic error of 6 μL. The RADWAG AS 110 R2.PLUS analytical balance (Radom, Poland) with a precision of 0.1 mg was also used for this purpose. Solubility determination was conducted using the A360 spectrophotometer from AOE Instruments (Shanghai, China). Spectra were recorded in the wavelength range of 190 nm to 400 nm with a resolution of 1 nm. Methanol was used for both diluting the samples and the initial calibration of the spectrophotometer. The analytical wavelength was set at 243 nm, and the absorbance at this wavelength was used to determine the EDA concentration in the samples and subsequently calculate its mole fractions. To ensure accuracy, three separate measurements were performed, and the resulting values were averaged. The calibration curve for EDA was prepared by diluting an initial stock solution and measuring the resulting solutions’ spectrophotometric properties at decreased concentrations. The molar concentrations of the measured solutions ranged from 0.0023 to 0.023 mg/mL. The relationship between the absorbance values at 243 nm and the solution concentration was described by a linear equation A = 85.603 × C − 0.0179, with high linearity denoted by the determination coefficient R^2 equal to 0.9993.
smiles,measurement,setting,value
"CC1=NN(c2ccccc2)C(=O)C1 [Edaravone, 5-methyl-2-phenyl-4H-pyrazol-3-one]",solubility at x2* = 0.9 versus pure solvent,"1,2-propanediol (PG)-water, 25 °C",higher solubility compared to pure solvents
same,solubility at x2* = 0.9 versus pure solvent,"1,3-butanediol (BG)-water, 25 °C",higher solubility compared to pure solvents
same,Edaravone solubility (xEDA),"BG-water, x2*=0.0 (water), 25 °C","0.02 (<±0.01) xEDA, ×102"
same,Edaravone solubility (xEDA),"BG-water, x2*=0.1, 25 °C","0.12 (±0.02) xEDA, ×102"
same,Edaravone solubility (xEDA),"BG-water, x2*=0.2, 25 °C","0.29 (±0.04) xEDA, ×102"
same,Edaravone solubility (xEDA),"BG-water, x2*=0.3, 25 °C","0.53 (±0.03) xEDA, ×102"
same,Edaravone solubility (xEDA),"BG-water, x2*=0.4, 25 °C","0.83 (±0.04) xEDA, ×102"
same,Edaravone solubility (xEDA),"BG-water, x2*=0.5, 25 °C","1.07 (±0.05) xEDA, ×102"
same,Edaravone solubility (xEDA),"BG-water, x2*=0.6, 25 °C","1.27 (±0.03) xEDA, ×102"
same,Edaravone solubility (xEDA),"BG-water, x2*=0.7, 25 °C","1.42 (±0.05) xEDA, ×102"
same,Edaravone solubility (xEDA),"BG-water, x2*=0.8, 25 °C","1.50 (±0.03) xEDA, ×102"
same,Edaravone solubility (xEDA),"BG-water, x2*=0.9, 25 °C","1.51 (±0.04) xEDA, ×102"
same,Edaravone solubility (xEDA),"DG-water, x2*=0.0 (water), 25 °C","0.02 (<±0.01) xEDA, ×102"
same,Edaravone solubility (xEDA),"DG-water, x2*=0.1, 25 °C","0.09 (±0.01) xEDA, ×102"
same,Edaravone solubility (xEDA),"DG-water, x2*=0.2, 25 °C","0.25 (±0.01) xEDA, ×102"
same,Edaravone solubility (xEDA),"DG-water, x2*=0.3, 25 °C","0.48 (±0.04) xEDA, ×102"
same,Edaravone solubility (xEDA),"DG-water, x2*=0.4, 25 °C","0.74 (±0.03) xEDA, ×102"
same,Edaravone solubility (xEDA),"DG-water, x2*=0.5, 25 °C","1.09 (±0.01) xEDA, ×102"
same,Edaravone solubility (xEDA),"DG-water, x2*=0.6, 25 °C","1.39 (±0.02) xEDA, ×102"
same,Edaravone solubility (xEDA),"DG-water, x2*=0.7, 25 °C","1.65 (±0.05) xEDA, ×102"
same,Edaravone solubility (xEDA),"DG-water, x2*=0.8, 25 °C","1.87 (±0.04) xEDA, ×102"
same,Edaravone solubility (xEDA),"DG-water, x2*=0.9, 25 °C","1.98 (±0.02) xEDA, ×102"
same,Edaravone solubility (xEDA),"PG-water, x2*=0.0 (water), 25 °C","0.02 (<±0.01) xEDA, ×102"
same,Edaravone solubility (xEDA),"PG-water, x2*=0.1, 25 °C","0.06 (±0.01) xEDA, ×102"
same,Edaravone solubility (xEDA),"PG-water, x2*=0.2, 25 °C","0.15 (±0.01) xEDA, ×102"
same,Edaravone solubility (xEDA),"PG-water, x2*=0.3, 25 °C","0.26 (±0.02) xEDA, ×102"
same,Edaravone solubility (xEDA),"PG-water, x2*=0.4, 25 °C","0.40 (±0.02) xEDA, ×102"
same,Edaravone solubility (xEDA),"PG-water, x2*=0.5, 25 °C","0.54 (±0.02) xEDA, ×102"
same,Edaravone solubility (xEDA),"PG-water, x2*=0.6, 25 °C","0.71 (±0.02) xEDA, ×102"
same,Edaravone solubility (xEDA),"PG-water, x2*=0.7, 25 °C","0.86 (±0.02) xEDA, ×102"
same,Edaravone solubility (xEDA),"PG-water, x2*=0.8, 25 °C","0.99 (±0.02) xEDA, ×102"
same,Edaravone solubility (xEDA),"PG-water, x2*=0.9, 25 °C","1.00 (±0.02) xEDA, ×102"
same,Edaravone solubility (xEDA),"TG-water, x2*=0.0 (water), 25 °C","0.02 (<±0.01) xEDA, ×102"
same,Edaravone solubility (xEDA),"TG-water, x2*=0.1, 25 °C","0.31 (±0.04) xEDA, ×102"
same,Edaravone solubility (xEDA),"TG-water, x2*=0.2, 25 °C","0.78 (±0.03) xEDA, ×102"
same,Edaravone solubility (xEDA),"TG-water, x2*=0.3, 25 °C","1.28 (±0.07) xEDA, ×102"
same,Edaravone solubility (xEDA),"TG-water, x2*=0.4, 25 °C","1.72 (±0.06) xEDA, ×102"
same,Edaravone solubility (xEDA),"TG-water, x2*=0.5, 25 °C","2.11 (±0.08) xEDA, ×102"
same,Edaravone solubility (xEDA),"TG-water, x2*=0.6, 25 °C","2.54 (±0.08) xEDA, ×102"
same,Edaravone solubility (xEDA),"TG-water, x2*=0.7, 25 °C","3.03 (±0.09) xEDA, ×102"
same,Edaravone solubility (xEDA),"TG-water, x2*=0.8, 25 °C","3.51 (±0.09) xEDA, ×102"
same,Edaravone solubility (xEDA),"TG-water, x2*=0.9, 25 °C","3.58 (±0.06) xEDA, ×102"
same,mole fraction solubility xEDA,"TG-water, x2*=0.9, 25 °C",3.58 × 10^−2 mole fraction
same,cosolvency effect in aqueous binary solvent,"diethylene glycol (DG)-water, 25 °C",no cosolvency effect was observed
same,Edaravone solubility (xEDA),"neat 1,2-propanediol (PG), x2*=1.0, 25 °C","0.85 (±0.01) xEDA, ×102"
same,Edaravone solubility (xEDA),"neat 1,3-butanediol (BG), x2*=1.0, 25 °C","1.43 (±0.04) xEDA, ×102"
same,Edaravone solubility (xEDA),"neat 2,4-dimethylphenol (DMP), 25 °C","1.88 (±0.05) xEDA, ×102"
same,Edaravone solubility (xEDA),"neat 2,4-dimethylphenol (DMP), 30 °C","2.82 (±0.58) xEDA, ×102"
same,Edaravone solubility (xEDA),"neat 2,4-dimethylphenol (DMP), 35 °C","4.08 (±0.21) xEDA, ×102"
same,Edaravone solubility (xEDA),"neat 2,4-dimethylphenol (DMP), 40 °C","5.65 (±0.25) xEDA, ×102"
same,Edaravone solubility (xEDA),"neat 4-formylmorpholine (4FM), 25 °C","1.11 (±0.01) xEDA, ×102"
same,Edaravone solubility (xEDA),"neat 4-formylmorpholine (4FM), 30 °C","1.46 (±0.08) xEDA, ×102"
same,Edaravone solubility (xEDA),"neat 4-formylmorpholine (4FM), 35 °C","1.76 (±0.19) xEDA, ×102"
same,Edaravone solubility (xEDA),"neat 4-formylmorpholine (4FM), 40 °C","2.17 (±0.01) xEDA, ×102"
same,Edaravone solubility (xEDA),"neat DMSO, 25 °C","7.58 (±0.32) xEDA, ×102"
same,Edaravone solubility (xEDA),"neat DMSO, 30 °C","12.25 (±0.16) xEDA, ×102"
same,Edaravone solubility (xEDA),"neat DMSO, 35 °C","20.1 (±0.15) xEDA, ×102"
same,Edaravone solubility (xEDA),"neat DMSO, 40 °C","29.81 (±1.14) xEDA, ×102"
same,mole fraction solubility xEDA,"neat DMSO, 40 °C",29.81 × 10^−2 mole fraction
same,Edaravone solubility (xEDA),"neat NMP, 25 °C","3.83 (±0.01) xEDA, ×102"
same,Edaravone solubility (xEDA),"neat NMP, 30 °C","4.96 (±0.49) xEDA, ×102"
same,Edaravone solubility (xEDA),"neat NMP, 35 °C","6.94 (±0.19) xEDA, ×102"
same,Edaravone solubility (xEDA),"neat NMP, 40 °C","8.61 (±0.21) xEDA, ×102"
same,mole fraction solubility xEDA,"neat TEG, 25 °C",4.63 × 10^−2 mole fraction
same,mole fraction solubility xEDA,"neat TEG, 40 °C",21.21 × 10^−2 mole fraction
same,Edaravone solubility (xEDA),"neat diethylene glycol (DG), x2*=1.0, 25 °C","2.04 (±0.06) xEDA, ×102"
same,Edaravone solubility (xEDA),"neat diglyme (DIG), 25 °C","2.05 (±0.02) xEDA, ×102"
same,Edaravone solubility (xEDA),"neat diglyme (DIG), 30 °C","2.69 (±0.04) xEDA, ×102"
same,Edaravone solubility (xEDA),"neat diglyme (DIG), 35 °C","3.33 (±0.11) xEDA, ×102"
same,Edaravone solubility (xEDA),"neat diglyme (DIG), 40 °C","4.16 (±0.06) xEDA, ×102"
same,Edaravone solubility (xEDA),"neat tetraglyme (TEG), 25 °C","4.63 (±0.05) xEDA, ×102"
same,Edaravone solubility (xEDA),"neat tetraglyme (TEG), 30 °C","8.63 (±0.22) xEDA, ×102"
same,Edaravone solubility (xEDA),"neat tetraglyme (TEG), 35 °C","13.05 (±0.19) xEDA, ×102"
same,Edaravone solubility (xEDA),"neat tetraglyme (TEG), 40 °C","21.21 (±0.64) xEDA, ×102"
same,mole fraction solubility xEDA,"neat triethylene glycol (TG), 25 °C",2.75 × 10^−2 mole fraction
same,Edaravone solubility (xEDA),"neat triethylene glycol (TG), x2*=1.0, 25 °C","2.75 (±0.08) xEDA, ×102"
same,Edaravone solubility (xEDA),"neat triglyme (TIG), 25 °C","1.53 (±0.07) xEDA, ×102"
same,Edaravone solubility (xEDA),"neat triglyme (TIG), 30 °C","2.20 (±0.04) xEDA, ×102"
same,Edaravone solubility (xEDA),"neat triglyme (TIG), 35 °C","3.11 (±0.17) xEDA, ×102"
same,Edaravone solubility (xEDA),"neat triglyme (TIG), 40 °C","4.57 (±0.39) xEDA, ×102"
